Biological target: T1, DENVC (dengue virus capsid protein) (Dengue virus 2 Thailand/NGS-C/1944, UniProt P14340)
T1 construct: mature capsid protein C from the N-terminus of the dengue virus genome polyprotein; pET3a, E. coli BL21(DE3)pLysS, heparin column; symmetric homodimer; printed residues reach R100
Assay: intrinsic tryptophan fluorescence titration, shift of emission maximum
Format: binding

T1 sequence (P14340 1-100): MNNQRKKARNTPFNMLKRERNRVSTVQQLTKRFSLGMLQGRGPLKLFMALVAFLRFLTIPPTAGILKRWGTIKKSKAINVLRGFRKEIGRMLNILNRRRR

| Compound | Kd [µM] |
| --- | --- |
| O/N=C/c1cc(Cl)ccc1O [compound 12, 2-hydroxy-5-chloro-benzyloxime] | 23 ± 8 |
| N=C(N)N/N=C/c1ccc(Br)s1 [compound 4, 5-bromo-thiophene-2-guanylhydrazone] | 20 ± 7 |
| N=C(N)NN=Cc1cc(Cl)ccc1O [compound 1, 5-chloro-salicylaldehyde-guanylhydrazone] | 18 ± 4 |
